Two compounds from patent US20260272889A1, “COGNITIVE FUNCTION-IMPROVING AGENT AND PHARMACEUTICAL COMPOSITION FOR TREATING OR PREVENTING COGNITIVE DYSFUNCTION” (TOHOKU UNIVERSITY, priority 2022, published 2026) can be followed below.

Assay [1] relates to schizophrenic model (MK-801) mice. In words: Novel object recognition test (NORT), MK-801 schizophrenic model, Example 2. It is filed as in vivo, C57BL/6J mice. The protocol:
(§1) Inbred C57BL/6J (B6J) mice were purchased from Charles River Laboratories Japan, Inc. (Kanagawa, Japan). The mice were housed four by four in standard cages and reared on a 12-hour light/dark cycle (lights on at 8:00 and off at 20:00) in a room where temperature and humidity were controlled. The mice had free access to standard laboratory chow MF (ORIENTAL YEAST Co., Ltd., Tokyo, Japan) and water. No special environmental enrichment was provided in the home cage. Behavioral testing was performed using males from 10:00 to 18:00.
(§2) MK-801 (FUJIFILM Wako Pure Chemical Corporation, Osaka, Japan) was diluted with physiological saline to a concentration of 1 mg/ml to prepare a stock solution, which was stored at −80° C. The MK-801 stock solution (1 mg/ml) was then further diluted with physiological saline to 20 μg/ml and stored at −20° C. as a solution for administration. The MK-801 administration solution (20 μg/ml) was thawed on the day of administration and used for administration to mice. The MK-801 administration solution (20 μg/ml) was used within one week after freezing. MK-801 is an antagonist of an NMDA (glutamatergic N-methyl-D-aspartate) receptor. Chronic administration of MK-801 to mice causes a decrease in spine density and abnormal behavior similar to schizophrenia in mice. Mice to which MK-801 was chronically administered were used as a disease model of schizophrenia. Mice to which physiological saline was administered instead of MK-801 were used as a healthy model.
(§3) Pemafibrate (Toronto Research Chemicals, Tronto, Canada) was diluted with DMSO to a concentration of 30 mg/ml and stored as a stock solution at −80° C. On the day of administration, the pemafibrate stock solution (30 mg/ml) was diluted with corn oil (Sigma-Aldrich, USA) to a concentration of 0.1 mg/ml and used for administration to mice. As a control, a DMSO solution prepared by diluting DMSO in corn oil was used for administration to mice (DMSO:corn oil=1:300).
(§4) MK-801 (0.2 mg/kg/day) or physiological saline was intraperitoneally administered to 6-week-old C57BL/6J mice (males) once a day for 2 weeks. […]

The test system is the same in assay [2]. In words: Spine density analysis of prefrontal cortex pyramidal cells, Example 2. It is filed as in vivo, C57BL/6J mice. The method, then: as §1, §2, §3, §4
Assay [3] has the same test system. In words: Spine density analysis, examination of prophylaxis, Example 3. It is filed as in vivo, C57BL/6J mice. Conditions: FIG. 12. The protocol: (§5) Animals and reagents the same as in Example 2 were used.
(§6) Examination of prophylaxis: Pemafibrate (0.3 mg/kg/day) or solvent (DMSO solution) was orally administered to 6-week-old C57BL/6J mice (males) once a day for 2 weeks. Mice to which pemafibrate was administered and mice to which DMSO was administered were each divided into two groups, to which MK-801 (0.2 mg/kg/day) or physiological saline was intraperitoneally administered once a day for two weeks.
(§7) Sampling for spine density analysis was performed after completion of NORT. Spine density analysis was performed using a group of 6 mice. Spine density analysis was performed in a manner similar to that in Example 2.
(§8) In the examination of the prophylaxis, pemafibrate was administered to 6-week-old mice for 2 weeks, and then MK-801 was administered thereto for 2 weeks (see upper parts in FIG. 11 and FIG. 12). In the healthy model, physiological saline (saline) was administered instead of MK-801.

Assay [4] shares this test system. In words: NORT, examination of therapeutic method, Example 3. It counts as in vivo, C57BL/6J mice. As to conditions: FIG. 9. The method, then:
as §5
(§9) MK-801 (0.2 mg/kg/day) or physiological saline was intraperitoneally administered to 6-week-old C57BL/6J mice (males) once a day for 2 weeks. Mice to which MK-801 was administered and mice to which physiological saline was administered were each divided into two groups, to which pemafibrate (0.3 mg/kg/day) or solvent (DMSO solution) was orally administered once a day for one week.
(§10) NORT was performed using a group of 12 mice. NORT was performed in a manner similar to that in Example 1.
(§11) In the examination of the therapeutic method, a schizophrenic model in which MK-801 was administered to 6-week-old mice for 2 weeks was used (see upper parts in FIGS. 9 and 10). In the healthy model, physiological saline (saline) was administered instead of MK-801.

Assay [5] shares this test system. The assay can be described thus: Spine density analysis, examination of therapeutic method, Example 3. It is filed as in vivo, C57BL/6J mice. The method, then: as §5, §9, §7, §11
The test system is the same in assay [6]. In words: NORT, examination of prophylaxis, Example 3. It is filed as in vivo, C57BL/6J mice. As to conditions: FIG. 11. The protocol:
as §5, §6, §10, §8

For assay [7], the system named is mouse microglial cell line MG6. In words: qRT-PCR of cytokine expression in microglial cell line MG6 (Example 1). It is filed as cell-based. Conditions: MG6 cells, 0.03 μM or 0.1 μM, 24 hours, qRT-PCR normalized with Gapdh. The protocol:
A mouse microglial cell line MG6 was used for experiments. MG6 was seeded on a 12-well plate at 5×10^4 cells/well using a DMEM (high glucose) medium containing 10% of FBS, 10 μg/ml of insulin, and 0.1 mM of 2-mercaptoethanol. The seeded MG6 was cultured in an incubator at 37° C. and a CO2 concentration of 5%. After 24 hours from the start of culture, drugs were added as follows. First, pemafibrate as the PPARα agonist was diluted with DMEM (high glucose) medium to have a final concentration of 0.03 μM or 0.1 μM using dimethylsulfoxide (DMSO) as a solvent. Then, the total amount of the medium of the well in which MG6 was seeded was replaced with the medium containing 0.03 μM or 0.1 μM of pemafibrate, or a medium to which DMSO was added as a control. Cells were collected additional 24 hours after the medium replacement.
Total RNA was extracted from the collected cells using RNeasy Mini kit (Qiagen). Reverse transcription of the total RNA was performed using GeneAce cDNA Synthesis Kit (FUJIFILM Wako Pure Chemical Corporation). THUNDERBIRD (trade name) SYBR qPCR Mix (Toyobo) was used to perform qRT-PCR by ABI7500 Real Time PCR system (Thermo Fisher Scientific). Relative gene expression was calculated by a ΔCt method and normalized with Gapdh. The following primers were used.
(Quantitative PCR measures a nucleic acid by following its amplification.)

The mark [8] stands for this setting: prophylaxis: pemafibrate 0.3 mg/kg/day oral 2 weeks, then MK-801 2 weeks, group (4).
Where [9] appears, read: schizophrenic model (MK-801(+)), pemafibrate 0.3 mg/kg/day oral 1 week, FIG. 8.

Structures are written as SMILES.

For `C[C@]12N[C@H](Cc3ccccc31)c1ccccc12` [MK-801], the “NORT dwell time, new object vs familiar object” value in assay [1] (MK-801 0.2 mg/kg/day i.p. 2 weeks, no pemafibrate, FIG. 5) is “no significant difference”. Besides, the “spine density compared with healthy model (saline)” value in assay [2] (MK-801 0.2 mg/kg/day i.p. 2 weeks, no pemafibrate, FIG. 7) is on record as “significantly reduced”.
For the compound `CC[C@@H](Oc1cccc(CN(CCCOc2ccc(OC)cc2)c2nc3ccccc3o2)c1)C(=O)O` [pemafibrate], the “NORT dwell time around new object compared with familiar object” value is listed as “significantly longer” in assay [1] (healthy model (MK-801(-)), pemafibrate 0.3 mg/kg/day oral 1 week, FIG. 6); “significantly longer” in assay [1] (schizophrenic model (MK-801(+)), pemafibrate 0.3 mg/kg/day oral 1 week after MK-801, FIG. 6); “significantly longer” in assay [4] (therapeutic: healthy models (saline), with pemafibrate); “significantly longer” in assay [4] (therapeutic: schizophrenic model group (4), pemafibrate 0.3 mg/kg/day oral 1 week after MK-801 2 weeks); “significantly longer” in assay [6] (prophylaxis: healthy models (saline), with pemafibrate); “significantly longer” in assay [6] (setting [8]). Besides, the “decrease in spine density caused by MK-801” value in assay [3] (prophylaxis: group (4) vs non-administration group (3)) is recorded as “suppressed”. Moreover, the “spine density compared with healthy models” value in assay [3] (setting [8]) was “no significant difference”; in assay [5] (therapeutic: schizophrenic model group (4), pemafibrate 0.3 mg/kg/day oral 1 week after MK-801, FIG. 10), “no significant difference”. In addition, the “spine density compared with healthy model” value in assay [2] (setting [9]) is “no significant difference”. Moreover, the “spine density compared with pemafibrate non-administration group of schizophrenic model” value in assay [2] (setting [9]) is on record as “significantly increased”. The “effect on spine density of schizophrenic model” value in assay [5] (therapeutic: group (4) vs non-administration group (3), FIG. 10) is “restores the spine density”. Moreover, the “expression of inflammatory cytokines (IL-1b, Tnfa)” value in assay [7] (FIG. 1) is “inhibits the expression”. Further, in assay [7] (FIG. 2), the “expression of anti-inflammatory cytokines (IL-4, IL-10)” value is on record as “inhibits the expression”.
